The source of these data is PubChem BioAssay (NCI).

Some test systems named below: ACHN renal; COLO 205 colon; DU-145 prostate; EKVX NSCLC; HT29 colon; MALME-3M melanoma; MDA-N; NCI-H226 lung; NCI/ADR-RES ovarian; SF-268 CNS; SF-295 CNS; SF-539 CNS; SK-MEL-28 melanoma; SK-MEL-5 melanoma; SN12C renal; U251 CNS; UACC-257 melanoma; UACC-62 melanoma; UO-31 renal; NCI-H23 lung.
Common to all, as to experiment: NCI anticancer screen, dose series, 48 h

The structures appear in SMILES notation.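 1) Cells in 96-well plates. 2) Compound, 48 h, 5 concentrations. 3) Linear interpolation between surrounding doses. 4) Unreached endpoint = highest concentration. At the TGI there is no net growth.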

In the case of `CCOC(=O)c1nc2ccccc2nc1Oc1ccc(C#N)cc1`, the TGI in the assay on ACHN renal, in the assay with COLO 205 colon, with DU-145 prostate, with EKVX NSCLC, with HT29 colon and with MALME-3M melanoma was greater than 100 µM in each case. Moreover, the TGI with MDA-N, with NCI-H226 lung, with NCI/ADR-RES ovarian, in the assay on SF-268 CNS, in the assay on SF-295 CNS and in the assay on SF-539 CNS was greater than 100 µM throughout. Further, the TGI in the assay with SK-MEL-28 melanoma, in the assay with SK-MEL-5 melanoma, in the assay on SN12C renal, in the assay with U251 CNS, in the assay with UACC-257 melanoma and in the assay with UACC-62 melanoma was greater than 100 µM each time. This molecule also returned a TGI in the assay with UO-31 renal greater than 100 µM.
On to `CCN(CC)c1ccc(C2Nc3ccc4ccccc4c3C3=C2C(=O)CCC3)cc1` (stereo not drawn), for which the TGI is 33.6 µM with ACHN renal; greater than 100 µM in the assay on COLO 205 colon; 62.8 µM in the assay with DU-145 prostate; greater than 100 µM in the assay on EKVX NSCLC; greater than 100 µM with HT29 colon; greater than 100 µM in the assay with MALME-3M melanoma. Also, the TGI in the assay with MDA-N, in the assay with NCI-H226 lung, with NCI-H23 lung, in the assay with NCI/ADR-RES ovarian, in the assay on SF-268 CNS and with SF-295 CNS was greater than 100 µM each time. For the same molecule, the TGI was 28.1 µM with SF-539 CNS; greater than 100 µM with SK-MEL-28 melanoma; greater than 100 µM with SN12C renal; 33 µM in the assay on U251 CNS; greater than 100 µM in the assay with UACC-257 melanoma; greater than 100 µM in the assay on UACC-62 melanoma. Further, the TGI in the assay with UO-31 renal is greater than 100 µM.
As to `CC(C)CC(NP(=O)(O)OC1OC(C)C(O)C(O)C1O)C(=O)NC(Cc1c[nH]c2ccccc12)C(=O)O` (stereo not drawn), the TGI in the assay with COLO 205 colon, in the assay on DU-145 prostate, in the assay on EKVX NSCLC, with HT29 colon, in the assay with MALME-3M melanoma and with MDA-N was greater than 100 µM in each case. Also, the TGI in the assay on NCI-H226 lung, with NCI-H23 lung, with NCI/ADR-RES ovarian, with SF-268 CNS, in the assay on SF-295 CNS and in the assay on SF-539 CNS was greater than 100 µM in each case. Further, the TGI in the assay on SK-MEL-28 melanoma, with SK-MEL-5 melanoma, in the assay on SN12C renal, in the assay on U251 CNS, in the assay on UACC-257 melanoma and in the assay with UACC-62 melanoma was greater than 100 µM each time. The TGI with UO-31 renal was greater than 100 µM.
Take `Cc1cccc(/C=N\NC(=S)N2CCCCC2)n1`: the TGI with ACHN renal is 0.863 µM; in the assay with COLO 205 colon, 0.22 µM; with DU-145 prostate, greater than 100 µM; with EKVX NSCLC, greater than 100 µM; in the assay on HT29 colon, greater than 100 µM; in the assay with MALME-3M melanoma, greater than 100 µM. Further, the TGI was greater than 100 µM in the assay with MDA-N; 0.747 µM with NCI-H226 lung; greater than 100 µM in the assay with NCI-H23 lung; 0.43 µM with NCI/ADR-RES ovarian; greater than 100 µM in the assay on SF-268 CNS; 6.58 µM with SF-295 CNS. Further, the TGI in the assay on SK-MEL-28 melanoma is greater than 100 µM; in the assay on SK-MEL-5 melanoma, 0.187 µM; with SN12C renal it was 9.38 µM; in the assay with U251 CNS it was greater than 100 µM; with UACC-257 melanoma, 0.0589 µM; with UACC-62 melanoma, 3.81 µM. Further, the TGI with UO-31 renal worked out at 26.2 µM.
Regarding `CN=C(N)N=Nc1c(O)[nH]c2ccccc12`, the TGI in the assay with ACHN renal, in the assay with COLO 205 colon, with DU-145 prostate, with EKVX NSCLC, in the assay with HT29 colon and in the assay with MALME-3M melanoma was greater than 100 µM in each case. Further, the TGI with MDA-N, with NCI-H226 lung, in the assay on NCI-H23 lung, with NCI/ADR-RES ovarian, in the assay with SF-268 CNS and in the assay with SF-295 CNS was greater than 100 µM in each case. In addition, the TGI with SK-MEL-28 melanoma, with SK-MEL-5 melanoma, in the assay on SN12C renal, with U251 CNS, with UACC-257 melanoma and with UACC-62 melanoma was greater than 100 µM throughout. The molecule also yielded a TGI in the assay with UO-31 renal greater than 100 µM.
For `CCCCOCOc1ccccc1P1(=O)COc2ccccc2OC1`, the TGI with ACHN renal, in the assay with COLO 205 colon, in the assay on DU-145 prostate, in the assay on EKVX NSCLC, with HT29 colon and in the assay with MALME-3M melanoma was greater than 100 µM throughout. For the same molecule, the TGI with MDA-N, in the assay with NCI-H23 lung, with NCI/ADR-RES ovarian, in the assay with SF-268 CNS, with SF-295 CNS and in the assay with SF-539 CNS was greater than 100 µM in each case. The TGI in the assay on SK-MEL-28 melanoma, with SK-MEL-5 melanoma, in the assay on SN12C renal, in the assay with U251 CNS, in the assay with UACC-257 melanoma and in the assay with UACC-62 melanoma was greater than 100 µM in each case. For the same molecule, the TGI in the assay on UO-31 renal was greater than 100 µM.
For the molecule `Oc1cnc2c(O)cccc2c1`, the TGI is 92.9 µM in the assay on ACHN renal; greater than 100 µM in the assay with DU-145 prostate; 57.2 µM with EKVX NSCLC; greater than 100 µM in the assay on HT29 colon; greater than 100 µM in the assay with MALME-3M melanoma; greater than 100 µM in the assay on MDA-N. Further, the TGI with NCI-H226 lung is 85.5 µM; with NCI/ADR-RES ovarian it was 66.5 µM; in the assay on SF-268 CNS it was greater than 100 µM; with SF-295 CNS, greater than 100 µM; in the assay with SF-539 CNS, 96.6 µM; in the assay with SK-MEL-28 melanoma, greater than 100 µM. The TGI was greater than 100 µM with SN12C renal; greater than 100 µM in the assay on U251 CNS; greater than 100 µM in the assay on UACC-257 melanoma; 62.3 µM in the assay on UACC-62 melanoma; greater than 100 µM in the assay on UO-31 renal.
Consider `CCOC(=O)N(C)C(=C(F)F)C(F)(F)F`, for which the TGI was 44 µM in the assay on COLO 205 colon; greater than 100 µM with DU-145 prostate; 89.2 µM in the assay on EKVX NSCLC; 78.2 µM in the assay with HT29 colon; 33.5 µM with MALME-3M melanoma; 40.2 µM in the assay with MDA-N. Further, the TGI in the assay with NCI-H226 lung was 58.3 µM; in the assay on NCI-H23 lung, 69.8 µM; with NCI/ADR-RES ovarian, greater than 100 µM; in the assay with SF-268 CNS it was 97.4 µM; with SF-295 CNS it was greater than 100 µM; in the assay on SF-539 CNS it was 78.3 µM. The TGI in the assay on SK-MEL-28 melanoma was greater than 100 µM; with SK-MEL-5 melanoma it was 30 µM; in the assay on U251 CNS, greater than 100 µM; in the assay with UACC-257 melanoma it was greater than 100 µM; with UO-31 renal, greater than 100 µM.
